Measurements from PMC12428610, “Gas-Binding Studies of Class 1 Sugar Beet Phytoglobin and C86A Mutant Using Isothermal Spectral Shifts in High-Precision Microliter Assay” (International Journal of Molecular Sciences, 2025).
“And” between values parts separate entries of the source, which are not always exact repeats. Identical values can stand only once. Like-named read-outs stand apart in the source and are kept apart here.

Legend:
BvPgb 1.2 C86A mutant = assay: Isothermal spectral shift (SpS) gas-binding titration, Monolith X, RED-NHS-labeled protein; parameters: species or system Beta vulgaris
Excerpt: (§1) The microscale capillary-based technology described here employs isothermal spectral shift (SpS). SpS has previously primarily been used for the determination of protein–protein interactions. In this study, we examine the possibility to extend the use of this technique to also include the binding of small ligands, like gases, to proteins. Ligand binding induces shifts in fluorescence spectra (blue- or red-shifts), which are detectable under isothermal conditions via dual-wavelength fluorescence detection at 650 nm and 670 nm. By plotting fluorescence intensity ratios (670/650 nm) against ligand concentration, the SpS-derived KD can be obtained. Our goal is to determine KD or half maximal effective concentrations (EC50) from ligand titration series. Here, we present a streamlined microscale method employing fluorophore-labeled proteins in gas-saturated microscale capillaries.
(§2) The proteins were thus incubated in solutions enriched with either CO or dissolved NONOate, utilizing a loading buffer (PBS-T20) to maintain gas saturation. Subsequent titrations of gas-enriched solutions yielded clear, reproducible dose–response curves.
(§3) All SpS measurements conducted in this study were performed using the Monolith X instrument (NanoTemper Technologies GmbH, München, Germany), which is equipped with dual-emission detection optics. The MO.Control 2software (NanoTemper Technologies GmbH) was used to calculate fluorescence intensity ratios at 670 and 650 nm. KD values were determined by fitting dose–response curves to a binding model that follows the law of mass action with a 1:1 interaction stoichiometry. This model defines the bound fraction, f(cL), at equilibrium for a given ligand concentration, cL, as given by Equation (1):(1) fcL=cL+cT+KD−cL+cT+KD^2−4cLcT/2cT where cT is the final concentration of target in the assay. The KD is estimated by fitting Equation (1) with the ratiometric expression seen in Equation (2):(2) RcL=Rf+fcL·Rb−Fb/Ff·Rf/1+fcL·Fb/Ff−1 where R(cL) represents the 670 nm/650 nm ratio at a given cL, Rf corresponds to the ratio of the free target, and Rb corresponds to the bound complex. The parameters Fb and Ff, derived from the sigmoidal dose–response curve fitting of the […], adjust for ligand-induced changes in fluorescence intensity at 650 nm.
(§4) Covalent labeling of primary amines was performed using the Protein Labeling Kit RED-NHS 2nd Generation (cat# MO-L011; NanoTemper Technologies GmbH). The assay buffer (PBS-T20) was prepared by supplementing degassed PBS pH 7.4 (cat# 21-040-CV; Corning, NY, USA) with 0.05% Tween20. Purified proteins in Tris were subjected to buffer exchange using the A-column prior to labeling. Briefly, a twofold molar excess of dye was added to the protein prepared to a final concentration of 20 µM. Proteins and dye were incubated for 30 min at room temperature in the dark to avoid photobleaching. Free dye was removed from the labeled protein using the provided B-column. Labeled proteins were kept in the dark and on ice awaiting capillary loading.
(§5) A working 1 mM CO solution was prepared by sparging PBS-T20 with CO, with the concentration approximated through Henry’s law for CO dissolvability in water (kH(CO) ≈ 0.001 mol l^−1 bar^−1). A working 2 mM NO solution (kH(NO) ≈ 0.002 mol l^−1 bar^−1) was prepared by dissolving 25 mg of NONOate (cat# D184-25MG; Merck, Darmstadt, Germany) in 15 mL of PBS-T20 to obtain a 10.75 mM solution, which provides a 10-molar excess of saturation upon decomposition. The NONOate PBS-T20 solution was gently agitated to create a gas-buffer zone to capture decomposing NONOate. Ligand solutions were prepared as 16-point serial dilutions of 10 µL in PCR-strip tubes, before being mixed by means of aspiration with 10 µL of labeled protein and incubated for 5 min. […]

[1] = molecular target: BvPgb 1.2 recombinant wild type (rWT); assay: as above; parameters: species or system Beta vulgaris
Excerpt: as §1, §2, §3, §4, §5

BvPgb 1.2 = assay: Flash photolysis and stopped-flow rapid mixing; KD calculated per Equation (3); type: binding, Beta vulgaris; settings: rWT, calculated per Equation (3) KD,obs=koff(1+KH)/kon from kinetic parameters of ref 30
Excerpt: Our obtained results are consistent with KD values derivable from earlier work, where kinetic parameters for BvPgb 1.2 were obtained using stopped-flow rapid mixing and flash photolysis, allowing the calculation of a single apparent KD per gas. While not explicitly reported, KD can be estimated from those data using Equation (3):(3) KD,obs=koff(1+KH)/kon where KH is the hexacoordination equilibrium constant and the (1 + KH) factor is used to account for the “penalty” imposed by the hexacoordinated fraction. […] The additional lower KD or EC50 for CO (400–500 nM) observed with our method likely reflects the contribution of the closed protein form, consistent with the 100–1000-fold kinetic differences reported in [27, 28, 29].

[2] = first transition of biphasic dose-response, read-out: EC50, CO binding, first transition
[3] = second transition of biphasic dose-response, read-out: EC50, CO binding, second transition
[4] = PBS-T20 pH 7.4, NO from NONOate, read-out: KD(NO), Isothermal Spectral Shift
[5] = text and figure legend, read-out: KD, NO binding

Molecule: [C-]#[O+] [CO, carbon monoxide]
- KD(CO, closed) /EC50,2, Isothermal Spectral Shift (BvPgb 1.2 C86A mutant; PBS-T20 pH 7.4): 500 ± 200 nM
- KD(CO, open) /EC50,1, Isothermal Spectral Shift (BvPgb 1.2 C86A mutant; PBS-T20 pH 7.4): 400 ± 300 µM
- EC50 (BvPgb 1.2 C86A mutant; [2]): ~0.5 µM
- EC50 (BvPgb 1.2 C86A mutant; [3]): ~400 µM
- KD(CO, closed) /EC50,2, Isothermal Spectral Shift ([1]; PBS-T20 pH 7.4): 400 ± 100 nM
- KD(CO, open) /EC50,1, Isothermal Spectral Shift ([1]; PBS-T20 pH 7.4): 700 ± 200 µM
- EC50 [1, 2]: ~0.4 µM
- EC50 [1, 3]: ~700 µM
- Kd (BvPgb 1.2; read-out: KD(CO, open), Flash Photolysis and Stopped-Flow Rapid Mixing): ~100 µM

Molecule: nitric oxide [NO]
- Kd (BvPgb 1.2 C86A mutant; [4]): 400 ± 100 nM
- Kd (BvPgb 1.2 C86A mutant; [5]): 400 nM and ~400 nM
- Kd [1, 4]: 1600 ± 100 nM
- Kd [1, 5]: 1600 nM and ~1600 nM
- Kd (BvPgb 1.2; read-out: KD(NO), Flash Photolysis and Stopped-Flow Rapid Mixing): ~6.4 µM
